{"source": "paper PMC4579064", "about": "(Toxicology and applied pharmacology, 2015)", "molecules": {"B1": {"name": "recombinant human CPR (Homo sapiens) (protein)", "chain": "MGDSHVDTSSTVSEAVAEEVSLFSMTDMILFSLIVGLLTYWFLFRKKKEEVPEFTKIQTLTSSVRESSFVEKMKKTGRNIIVFYGSQTGTAEEFANRLSKDAHRYGMRGMSADPEEYDLADLSSLPEIDNALVVFCMATYGEGDPTDNAQDFYDWLQETDVDLSGVKFAVFGLGNKTYEHFNAMGKYVDKRLEQLGAQRIFELGLGDDDGNLEEDFITWREQFWPAVCEHFGVEATGEESSIRQYELVVHTDIDAAKVYMGEMGRLKSYENQKPPFDAKNPFLAAVTTNRKLNQGTERHLMHLELDISDSKIRYESGDHVAVYPANDSALVNQLGKILGADLDVVMSLNNLDEESNKKHPFPCPTSYRTALTYYLDITNPPRTNVLYELAQYASEPSEQELLRKMASSSGEGKELYLSWVVEARRHILAILQDCPSLRPPIDHLCELLPRLQARYYSIASSSKVHPNSVHICAVVVEYETKAGRINKGVATNWLRAKEPAGENGGRALVPMFVRKSQFRLPFKATTPVIMVGPGTGVAPFIGFIQERAWLRQQGKEVGETLLYYGCRRSDEDYLYREELAQFHRDGALTQLNVAFSREQSHKVYVQHLLKQDREHLWKLIEGGAHIYVCGDARNMARDVQNTFYDIVAELGAMEHAQAVDYIKKLMTKGRYSLDVWS"}}, "key": {"brain ChE": {"system": "brain ChE", "assay": "brain ChE activity in parathion-treated rats", "type": "in vivo, rat"}, "[1]": {"type": "in vivo, rat", "details": "after parathion 8 mg/kg oral; 60 min"}, "female Long-Evans rats": {"system": "female Long-Evans rats", "details": "out of 5 rats dosed with parathion 8 mg/kg oral; 60 min"}, "rat": {"system": "rat", "details": "ref Gaines, 1960; cited from earlier work"}, "[2]": {"substrate": "CC1=CC(=O)c2ccccc2C1=O", "assay": "CPR-mediated redox cycling, hydroxyl radical formation", "type": "biochemical, human", "details": "other: menadione; Fe/EDTA, terephthalate; pH 7.8; 37.0 °C"}, "[3]": {"substrate": "CC1=CC(=O)c2ccccc2C1=O", "assay": "CPR-mediated redox cycling, H2O2 formation", "type": "biochemical, human", "details": "other: menadione as redox cycling substrate of CPR; Amplex Red; pH 7.8; 37.0 °C"}, "[4]": {"details": "parathion 8 mg/kg oral gavage alone, 60 min"}}}
{"molecule": "CC1(S(=O)(=O)[O-])CC(=O)c2ccccc2C1=O.[Na+]", "note": "(centres unmarked) [menadione bisulfite]", "values": [{"measurement": "parathion-induced inhibition of brain cholinesterase activity", "setting": "brain ChE; menadione bisulfite 40 mg/kg, ip", "result": "reduced"}]}
{"molecule": "CCOP(=O)(OCC)Oc1ccc([N+](=O)[O-])cc1", "note": "[paraoxon, diethyl 4-nitrophenyl phosphate]", "values": [{"measurement": "paraoxon levels in serum, liver and brain", "setting": "[1]", "result": "could not be detected"}]}
{"molecule": "CCOP(=S)(OCC)Oc1ccc([N+](=O)[O-])cc1", "note": "[parathion, diethyl 4-nitrophenyl phosphorothionate]", "values": [{"measurement": "rats that died before the end of the observation period", "setting": "female Long-Evans rats", "result": 1}, {"measurement": "rat oral LD50", "setting": "rat", "result": "2 to 13", "unit": "mg/kg"}, {"measurement": "forebrain ChE activity inhibited", "setting": "brain ChE; [4]", "result": 95, "unit": "%"}, {"measurement": "hindbrain ChE activity inhibited", "setting": "brain ChE; [4]", "result": 87, "unit": "%"}]}
{"molecule": "B1", "values": [{"measurement": "Km", "setting": "[2]", "result": 1.7, "unit": "µM"}, {"measurement": "Km", "setting": "[3]", "result": 4.1, "unit": "µM"}]}
